Consider one cell line from the supplement of paper PMC10307832.

Holding throughout (test): relative viability (nuclei count vs DMSO), 5 days (fraction); higher = more cells survive
Compound in the assay “Trametinib + Alpelisib”: CC(=O)Nc1cccc(-n2c(=O)n(C3CC3)c(=O)c3c(Nc4ccc(I)cc4F)n(C)c(=O)c(C)c32)c1 [Trametinib] + Cc1nc(NC(=O)N2CCC[C@H]2C(N)=O)sc1-c1ccnc(C(C)(C)C(F)(F)F)c1 [Alpelisib] (partner 2 µM)
The method in brief: (§1)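 Lung cancer cell lines, seeded in 1536-well plates, were treated the following day by pin tool with a single drug or with five library-drug doses (not always all listed) in √10 steps on top of a fixed anchor-drug dose. Cells were fixed and nuclei stained in one step after 5 days, and nuclei were counted. Relative viability is the nuclei count for treated wells divided by that for vehicle wells, reported as medians of duplicate plates.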

Compound in the assay “Trametinib + Phenformin”: CC(=O)Nc1cccc(-n2c(=O)n(C3CC3)c(=O)c3c(Nc4ccc(I)cc4F)n(C)c(=O)c(C)c32)c1 [Trametinib] + N=C(N)NC(=N)NCCc1ccccc1 [Phenformin] (partner 250 µM)
The method in brief:
as §1

Compound in the assay “Trametinib + Pemetrexed”: CC(=O)Nc1cccc(-n2c(=O)n(C3CC3)c(=O)c3c(Nc4ccc(I)cc4F)n(C)c(=O)c(C)c32)c1 [Trametinib] + Nc1nc2[nH]cc(CCc3ccc(C(=O)N[C@@H](CCC(=O)O)C(=O)O)cc3)c2c(=O)[nH]1 [Pemetrexed] (partner 0.2 µM)
The method in brief: as §1

Compound in the assay “Trametinib + Decitabine”: CC(=O)Nc1cccc(-n2c(=O)n(C3CC3)c(=O)c3c(Nc4ccc(I)cc4F)n(C)c(=O)c(C)c32)c1 [Trametinib] + Nc1ncn([C@H]2C[C@H](O)[C@@H](CO)O2)c(=O)n1 [Decitabine] (partner 2 µM)
The method in brief:
as §1

As for UMC-11, the relative viability in the assay with Trametinib + Alpelisib (first compound 0.0025 µM) came out at 0.904; with Trametinib + Alpelisib (first compound 0.007906 µM), 0.981; with Trametinib + Alpelisib (first compound 0.025 µM), 0.956; in the assay with Trametinib + Alpelisib (first compound 0.07906 µM) it was 0.876; with Trametinib + Alpelisib (first compound 0.25 µM) it was 0.945; in the assay with Trametinib + Phenformin (first compound 0.0025 µM), 0.366. The relative viability with Trametinib + Phenformin (first compound 0.007906 µM) is 0.328; in the assay with Trametinib + Phenformin (first compound 0.025 µM), 0.28; in the assay with Trametinib + Phenformin (first compound 0.07906 µM), 0.309; in the assay with Trametinib + Phenformin (first compound 0.25 µM), 0.291; in the assay with Trametinib + Pemetrexed (first compound 0.0025 µM), 0.804; in the assay with Trametinib + Pemetrexed (first compound 0.007906 µM), 0.741. Moreover, the relative viability with Trametinib + Pemetrexed (first compound 0.07906 µM) worked out at 0.719; in the assay with Trametinib + Pemetrexed (first compound 0.25 µM) it was 0.701; with Trametinib + Decitabine (first compound 0.0025 µM), 0.548; with Trametinib + Decitabine (first compound 0.007906 µM) it was 0.674; with Trametinib + Decitabine (first compound 0.25 µM) it was 0.471.
